This is an account of results in patent US6987092B1, “Indigoid bisindole derivatives” (Faustus Forschungs Cie. Translational Cancer Research GmbH, priority 1999, dated 2006).

Where a name gives a salt, the structure may show the parent alone.

What all share (assay type): cell-based
One series has as its system LXFL-529L cells. The series is described as follows: Cellular uptake by LXFL-529L cells. The following applies: 2 hours; for distribution particular: cellular organelles. As for the experimental part:
The amounts of the substances which were taken up by the cells are given depending on the concentration of the substance within the incubation medium. The time of incubation was 2 hours in all of the experiments. Furthermore, distribution between cytosol and the cellular organelles (particular) was measured and is given in the last two columns of Table 3.

Series [1] relates to cells of the mammary carcinoma cell line MCF-7. The series can be described thus: Tumor cell growth inhibition, SRB-assay, MCF-7. The following applies: 50% growth inhibition, three days incubation in serum-containing medium.
Series [2] relates to cells of the large-cell lung carcinoma of the tumor line LXFL-529L. The series is described as follows: Tumor cell growth inhibition, SRB-assay, LXFL-529L. To be noted: 50% growth inhibition, three days incubation in serum-containing medium.
Setting [3] is: concentration of incubation 10 μM.
[4] abbreviates: concentration of incubation 20 μM.

With `Nc1ccc2c(c1)C(=C1Nc3ccccc3C1=NO)C(=O)N2` [Example 28, 5-amino-indirubin-3′-monooxime], in the series with LXFL-529L cells (setting [3]), the distribution particular is listed as 90 ± 6%, the amount taken up was determined as 0.20 ± 0.06 μg/mg protein and the distribution cytosol is listed as 10 ± 2%. Besides, in the series on LXFL-529L cells (setting [4]), the distribution particular was 94 ± 5%, the amount taken up stood at 0.23 ± 0.05 μg/mg protein and the distribution cytosol is 90 ± 6%. Also, in series [1], half-maximal inhibition (IC50) required 5 ± 0.8 µM. Moreover, half-maximal inhibition in series [2] (IC50) required 7.5 ± 0.4 µM.
In the series on LXFL-529L cells (setting [3]), “3-{3′-[iminooxy-O-(2-D-glucopyranosylethyl)]-(2′H3′H)indol-2′-ylidene}-(2H3H)indol-2-one [Example 48]” showed a distribution particular of 87 ± 7%, an amount taken up of 0.20 ± 0.05 μg/mg protein and a distribution cytosol of 13 ± 3%. In the series on LXFL-529L cells (setting [4]), this compound returned a distribution particular of 95 ± 6%, an amount taken up of 0.25 ± 0.04 μg/mg protein and a distribution cytosol of 5 ± 1%. Further, the IC50 in series [1] stood at 3.5 ± 0.6 µM. Moreover, in series [2], it took 21 ± 1.5 µM to reach half-maximal inhibition (IC50).
In the series with LXFL-529L cells (setting [3]), `O=C1Nc2ccccc2C1=C1Nc2ccccc2C1=NOCCO` [Example 31] registered a distribution particular of 93 ± 7%, an amount taken up of 0.27 ± 0.06 μg/mg protein and a distribution cytosol of 7 ± 1%. In the series on LXFL-529L cells (setting [4]), this compound came in with a distribution particular of 93 ± 6%, an amount taken up of 0.31 ± 0.07 μg/mg protein and a distribution cytosol of 7 ± 2%. In series [1], it took 2.5 ± 0.4 µM to reach half-maximal inhibition (IC50). This compound also came in with an IC50 in series [2] of 1.5 ± 0.4 µM.
Regarding `NCCNc1ccc2c(c1)C(=C1Nc3ccccc3C1=O)C(=O)N2` [Example 20, 5-(2-amino-ethyl)-amino-indirubin], the IC50 in series [1] worked out at 3.5 ± 0.4 µM; in series [2] it was 4 ± 0.3 µM.
For the compound `O=C(O)CCC(=O)Nc1ccc2c(c1)C(=C1Nc3ccccc3C1=O)C(=O)N2` [Example 17, [3-(3′-oxo-(2′H3′H)indol-2′-ylidene)-(2H3H)indol-2-one-5-yl]-succinamic acid], the IC50 amounted to 14 ± 0.9 µM in series [1] and 12.5 ± 0.7 µM in series [2].
As for `CNC(=O)Cc1ccc2c(c1)C(=C1Nc3ccccc3C1=O)C(=O)N2` [Example 9, N-methyl-2-[3-(3′-oxo-(2′H3′H)indol-2′-ylidene)-(2H3H)indol-2-one-5-yl]-acetamide], the IC50 in series [1] turned out to be 17 ± 1 µM; in series [2], 11.5 ± 0.6 µM.
With “3-{3′-[iminooxy-O-(3-D-glucopyranosylpropyl)]-(2′H3′H)indol-2′-ylidene}-(2H3H)indol-2-one [Example 45]”, the IC50 in series [1] was 10.5 ± 0.6 µM; in series [2], 19 ± 0.9 µM.
As for `NCCNC(=O)Cc1ccc2c(c1)C(=C1Nc3ccccc3C1=O)C(=O)N2` [Example 8, N-(2-amino-ethyl)-2-[3-(3′-oxo-(2′H3′H)indol-2′-ylidene)-(2H3H)indol-2-one-5-yl]-acetamide], the figures for the 50% inhibitory concentration (IC50) in series [1] and in series [2] were 4 ± 0.6 µM and 3.5 ± 0.7 µM, respectively.
In the case of “indirubin-5-sulfonic acid-(morpholin-4-yl-amide) [Example 23]”, the IC50 in series [1] came to 3 ± 0.9 µM; in series [2], 4.5 ± 0.8 µM.
With `O=C1Nc2ccccc2C1=C1Nc2ccccc2C1=NOCCOCCO` [Example 33, 3-{3′-[iminooxy-O-(2-(2-hydroxy-ethoxy)-ethyl)]-(2′H3′H)indol-2′-ylidene}-(2H3H)indol-2-one], the IC50 turned out to be 2.5 ± 0.5 µM in series [1] and 2 ± 0.4 µM in series [2].
On to `CCOC(=O)ON=C1C(=C2C(=O)Nc3ccccc32)Nc2ccccc21` [Example 39, 3-[3′-(iminooxy-O-carbethoxy)-(2′H3′H)indol-2′-ylidene]-(2H3H)indol-2-one], for which the half-inhibitory concentration (IC50) in series [1] worked out at 10 ± 0.9 µM; in series [2] it was 4.5 ± 0.7 µM.
For the compound “3-{3′-[iminooxy-O-((N,N)-bis(hydroxyethyl)-4-amino-butyl)]-(2H3H)indol-2′-ylidene}-(2H3H)indol-2-one [Example 61]”, the IC50 in series [1] is 12.4 ± 0.7 µM; in series [2], 8 ± 0.3 µM.
The like results for “3-[3′-[iminooxy-O-(2-D-glucopyranosylethyl)]-(2H′3H′)indol-2′-ylidene]-5-methyl-(2H3H)indol-2-one [Example 68]” were, in that order, 2.5 ± 0.8 µM and 17 ± 0.8 µM.
On to `Nc1ccc2c(c1)C(=C1Nc3ccccc3C1=O)C(=O)N2` [Example 15, 5-amino-indirubin], for which the distribution particular with LXFL-529L cells (setting [3]) is 85 ± 4%; with LXFL-529L cells (setting [4]) it was 94 ± 4%. In addition, the amount taken up in the series on LXFL-529L cells (setting [3]) was determined as 0.25 ± 0.04 μg/mg protein; with LXFL-529L cells (setting [4]) it was 0.29 ± 0.05 μg/mg protein. Further, the distribution cytosol in the series with LXFL-529L cells (setting [3]) is 15 ± 2%; in the series on LXFL-529L cells (setting [4]), 6 ± 1%. The IC50 was 5 ± 0.5 µM in series [1] and 8 ± 0.7 µM in series [2].
For `CN(C)C(=O)ON=C1C(=C2C(=O)Nc3ccccc32)Nc2ccccc21` [Example 41, 3-{3′-[iminooxy-O-((N,N)-dimethyl-carbamoyl)]-(2′H3′H)indol-2′-ylidene}-(2H3H)indol-2-one], the values for the IC50 in series [1] and in series [2] were 7.5 ± 0.9 µM and 5 ± 0.6 µM, respectively.
`O=C1Nc2ccc(S(=O)(=O)N3CCNCC3)cc2C1=C1Nc2ccccc2C1=O` [Example 22, indirubin-5-sulfonic acid-(piperazin-1-yl-amide)]: the concentration for half-maximal inhibition (IC50) in series [1] amounted to 2 ± 0.3 µM; in series [2], 3 ± 0.5 µM.
As for `CC(=O)Nc1ccc2c(c1)C(=C1Nc3ccccc3C1=NO)C(=O)N2` [Example 29, 5-acetylamino-indirubin-3′-monooxime], the IC50 in series [1] stood at 5 ± 0.5 µM; in series [2], 4 ± 0.9 µM.
As to `O=C(O)CCCCON=C1C(=C2C(=O)Nc3ccccc32)Nc2ccccc21` [Example 38, 5{O-[2′-(2-oxo-(2H3H)indol-3-ylidene)-(2′H3′H)indol-3′-ylidene]-aminooxy}-pentanoic Acid (Sodium Salt)], the IC50 in series [1] is 14 ± 0.7 µM; in series [2] it was 14 ± 0.8 µM.
As for `O=C1Nc2ccc(NCCO)cc2C1=C1Nc2ccccc2C1=O` [Example 21, 5-(2-hydroxy-ethyl)-amino-indirubin], the IC50 in series [1] was 5 ± 0.6 µM; in series [2] it was 3 ± 0.5 µM.
For `CN(C)CCON=C1C(=C2C(=O)Nc3ccccc32)Nc2ccccc21` [Example 58, 3-{3′-[iminooxy-O-((N,N)-dimethyl-2-amino-ethyl)]-(2′H3′H)indol-2′-ylidene}-(2H3H)indol-2-one], the half-inhibitory concentration (IC50) in series [1] is 6.5 ± 1.1 µM; in series [2], 5 ± 0.9 µM.
The like results for `CCOC(=O)CON=C1C(=C2C(=O)Nc3ccccc32)Nc2ccccc21` [Example 40, ethyl-2{O-[2′-(2-oxo-(2H3H)indol-3-ylidene)-(2′H3′H)indol-3′-ylidene]-aminooxy}-acetate] were, in that order, 10 ± 0.7 µM and 6 ± 0.4 µM.
In the case of “3-{3′-[iminooxy-O-(2-D-galactopyranosylethyl)]-(2′H3′H)indol-2′-ylidene}-(2H3H)indol-2-one [Example 47]”, the IC50 in series [1] turned out to be 9.5 ± 0.9 µM; in series [2], 17 ± 1.2 µM.
For `O=C1Nc2ccc(CC(=O)N3CCOCC3)cc2C1=C1Nc2ccccc2C1=O` [Example 7, 5-[2-(morpholin-4-yl)-ethan-2-one-1-yl]-indirubin] the same measures were 7.5 ± 0.6 µM and 5.5 ± 0.7 µM.
Consider `O=C(O)CCCON=C1C(=C2C(=O)Nc3ccccc32)Nc2ccccc21` [Example 37, 4-{O-[2′-(2-oxo-(2H3H)indol-3-ylidene)-(2′H3′H)indol-3′-ylidene]-aminooxy}-butyric Acid (Sodium Salt)], for which the IC50 was determined as 14 ± 1.1 µM in series [1] and 12 ± 1 µM in series [2].
Regarding `CCCc1ccc2c(c1)C(=C1Nc3ccccc3C1=O)C(=O)N2` [Example 4, 5-n-propyl-indirubin], the IC50 in series [1] was 6.5 ± 0.5 µM; in series [2] it was 7 ± 0.4 µM.
As for `O=C1Nc2ccccc2C1=C1Nc2ccccc2C1=NOCCN[C@H]1C(O)O[C@H](CO)[C@@H](O)[C@@H]1O` (some centres unmarked) [Example 56, 3-{3′-[iminooxy-O-(N-(2-deoxy-glucose)-2-amino-ethyl)]-(2′H3′H)indol-2′-ylidene}-(2H3H)indol-2-one], the IC50 in series [1] amounted to 14 ± 1.2 µM; in series [2], 12 ± 1.3 µM.
As to `O=C1Nc2ccc(CP(=O)(O)O)cc2C1=C1Nc2ccccc2C1=O` [Example 13, [3-(3′-oxo-(2′H3′H)indol-2′-ylidene)-(2H3H)indol-2-one-5-yl]-methyl-phosphonic Acid], the IC50 in series [1] came to 6.5 ± 1 µM; in series [2], 8.5 ± 0.8 µM.
As for `CC(C)c1ccc2c(c1)C(=C1Nc3ccccc3C1=NO)C(=O)N2` [Example 27, 5-isopropyl-indirubin-3′-monooxime], the half-maximal inhibitory concentration (IC50) in series [1] worked out at 5 ± 0.9 µM; in series [2], 5.5 ± 0.6 µM.
With `O=C1Nc2ccccc2C1=C1Nc2ccccc2C1=NOCCN1CCNCC1` [Example 63, 3-{3′-[iminooxy-O-(2-(piperazin-1-yl)-ethyl)]-(2′H3′H)indol-2′-ylidene}-(2H3H)indol-2-one], the half-inhibitory concentration (IC50) in series [1] came out at 9.5 ± 0.8 µM; in series [2], 8 ± 0.6 µM.
For the compound “3-{3′-[iminooxy-O-(O^4-α-D-glucopyranosyl-2-D-glucopyranosylethyl)]-(2′H3′H)indol-2′-ylidene}-(2H3H)indol-2-one [Example 46]”, the figures for the IC50 in series [1] and in series [2] were 7 ± 0.9 µM and 24 ± 1.3 µM, respectively.
With `NCC(=O)Nc1ccc2c(c1)C(=C1Nc3ccccc3C1=NO)C(=O)N2` [Example 30, 2-amino-N-[3-(3′-hydroxyimino-(2H3H)indol-2′-ylidene)-(2H3H)-indol-2-one-5-yl]-acetamide], the values for the half-maximal inhibitory concentration (IC50) in series [1] and in series [2] were 6 ± 0.7 µM and 6 ± 0.8 µM, respectively.
